How the values were obtained:
[1] = system: N-acetyl transferase (NAT); test: NAT metaprobe 13C recovery in urinary glucosamine fraction; assay type: in vivo, Sprague-Dawley rats; settings: 5 mg/kg by gastric intubation, 24 hour urine, bile acid glucosamine fraction
Source text: (§1) In the first experiment, six male Sprague-Dawley rats, weighing on average 300 grams, were studied while awake and unstressed after an overnight fast. […] Food and water were then given ad libitum. After receiving the metaprobes, the animals were kept in metabolic cages to facilitate collection of urine (Robinson, 1968).

[2] = system: N-acetyl transferase (NAT); test: NAT metaprobe 13C recovery in human urine; assay type: in vivo
Method: The tracers were ingested each time with 100 ml of a 10% aqueous solution of high fructose corn syrup. Urine samples were collected at 12, 24 and 36 hours. […] The analysis of each urine sampling interval was carried out in triplicate and the variation among replicates fell within 15%. […] Also, since aspartyl-N-acetyl-glucosamine pyranoside is rapidly synthesized and subsequently turned over by lysozomes, its rate of appearance in plasma can be determined, along with the plasma rate of appearance of N-acetylglucosamine, at shorter intervals post dosing. Thus, the MRI2 index could be computed within reach of the two-hour preferred sampling time frame for the practicable implementation of diagnostic procedures with metaprobes.

[3] = system: glutamine-fructose-6-phosphate aminotransferase (GFAT); settings: rat, in vivo
Source text: as §1

[4] = molecular target: T1, Prolyl oligopeptidase (PO) (Rattus norvegicus, UniProt O70196); test: prolyl oligopeptidase metaprobe hydrolysis in rat plasma, brain and lung preparations; assay type: biochemical
T1 sequence (O70196 1-710): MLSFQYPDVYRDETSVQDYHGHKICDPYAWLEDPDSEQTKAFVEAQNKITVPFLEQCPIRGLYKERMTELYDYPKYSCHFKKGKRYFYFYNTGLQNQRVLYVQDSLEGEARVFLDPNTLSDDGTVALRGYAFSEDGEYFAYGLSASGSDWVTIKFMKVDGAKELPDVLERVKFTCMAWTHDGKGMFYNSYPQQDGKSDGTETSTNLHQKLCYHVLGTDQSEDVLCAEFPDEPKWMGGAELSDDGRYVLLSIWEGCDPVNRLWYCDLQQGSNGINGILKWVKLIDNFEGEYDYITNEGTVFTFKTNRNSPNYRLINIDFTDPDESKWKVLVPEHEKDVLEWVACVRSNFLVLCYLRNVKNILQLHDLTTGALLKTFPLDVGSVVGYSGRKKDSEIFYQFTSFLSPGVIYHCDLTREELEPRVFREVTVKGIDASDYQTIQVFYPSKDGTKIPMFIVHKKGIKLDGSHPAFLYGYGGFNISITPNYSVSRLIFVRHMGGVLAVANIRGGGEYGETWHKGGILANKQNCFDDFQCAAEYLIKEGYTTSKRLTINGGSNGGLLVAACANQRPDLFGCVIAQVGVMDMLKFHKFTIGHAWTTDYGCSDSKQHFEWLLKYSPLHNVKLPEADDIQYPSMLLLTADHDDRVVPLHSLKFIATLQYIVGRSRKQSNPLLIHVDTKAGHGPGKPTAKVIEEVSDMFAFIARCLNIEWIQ

[5] = molecular target: T2, Prolyl oligopeptidase (PO) (Homo sapiens, UniProt P48147); test: prolyl oligopeptidase metaprobe hydrolysis in bronchoalveolar lavage fluid; assay type: biochemical; settings: Human BAL
T2 sequence (P48147 1-710): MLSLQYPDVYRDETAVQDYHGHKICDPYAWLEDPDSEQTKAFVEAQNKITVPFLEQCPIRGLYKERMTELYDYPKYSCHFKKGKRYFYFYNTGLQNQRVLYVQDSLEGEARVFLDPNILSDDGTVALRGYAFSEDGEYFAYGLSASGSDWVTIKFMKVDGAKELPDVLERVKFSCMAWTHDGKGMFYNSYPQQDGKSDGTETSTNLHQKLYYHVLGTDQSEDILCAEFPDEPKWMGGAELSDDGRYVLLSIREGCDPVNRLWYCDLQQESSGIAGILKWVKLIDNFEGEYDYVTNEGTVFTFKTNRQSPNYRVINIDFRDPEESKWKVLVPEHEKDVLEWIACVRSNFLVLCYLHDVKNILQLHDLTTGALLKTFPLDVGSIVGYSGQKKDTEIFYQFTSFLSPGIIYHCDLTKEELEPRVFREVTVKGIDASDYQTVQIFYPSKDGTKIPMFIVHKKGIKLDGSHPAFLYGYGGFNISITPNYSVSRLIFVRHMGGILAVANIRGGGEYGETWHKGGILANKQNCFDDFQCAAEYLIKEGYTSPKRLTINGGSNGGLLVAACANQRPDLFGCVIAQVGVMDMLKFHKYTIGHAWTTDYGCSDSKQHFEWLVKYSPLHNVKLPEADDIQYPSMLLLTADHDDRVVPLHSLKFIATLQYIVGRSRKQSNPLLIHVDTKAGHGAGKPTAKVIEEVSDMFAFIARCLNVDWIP

Structure (SMILES): CC(=O)N[C@@H]1[C@@H](O)[C@H](O)[C@@H](CO)O[13CH]1O (some centres unmarked) [N-acetyl-1-^13C-glucosamine]
- percent recovery of 13C [1]: 0.15+/−0.073%
- 13C % Dose ([2]; time point 12 hr): .089 % Dose
- 13C % Dose ([2]; time point 24 hr): .189 % Dose
- 13C % Dose ([2]; time point 36 hr): .213 % Dose

Structure (SMILES): CC(=O)NC(CCC([15NH2])=O)C(=O)O (centres unmarked) [N-acetyl-5-^15N-glutamine]
- normalized 15N/13C GFAT-MRI1 [3]: 24

Structure (SMILES): CCO[13C](=O)[C@H](CC)NC(=O)[C@@H]1CCCN1C(=O)CNC(=O)OCc1ccccc1 [Prolyl oligopeptidase Metaprobe, N-carbobenzyloxy-glycyl-L-prolyl-L-2-aminobutyric [1-^13C] acid ethyl ester]
- % Dose metabolized ([4]; Rat Brain homogenate (acetone powder), Control): 44 ± 8 % Dose
- % Dose metabolized ([4]; Rat Lung homogenate (acetone powder), Control): 24 ± 12 % Dose
- % Dose metabolized ([4]; Rat Plasma, Control): 2 ± 4 % Dose
- % Dose metabolized ([4]; Rat Plasma, Test sample, Sepsis): 8 ± 5 % Dose
- % Dose metabolized ([5]; Control, two hour incubation at 37° C.): 30 ± 4 % Dose
- % Dose metabolized ([5]; Test sample, ARDS): 54 ± 13 % Dose

Source: patent US6610270B1, “In vivo determination of metabolic function for use in therapy management” (Xanthus Life Sciences, Inc., priority 1998, dated 2003)
